Earlier results on 1 substance are cited in US10463585B2, “Cosmetic compositions” (The Procter & Gamble Company, priority 2017, dated 2019).

In this series the test system is tyrosinase expression. Conditions: in vivo; background statement.

As to “PKEK (Artificial sequence is synthesized)”, the Tyrosinase expression result is given as “reduce tyrosinase expression”.
